pEC50: −log10 of the molar value.
Test system: HBV rcDNA in HepDE19 cells
Assay: HepDE19 assay with bDNA quantitation of HBV rcDNA
Assay type: cell-based, hepatitis B virus (HBV)
Conditions: Hepatitis B virus, HepDE19, 168 h, inhibition of rcDNA formation in HepDE19 cells (HepG2 derived), Tet-free medium, 7 day incubation, Quantigene 2.0 bDNA readout, top concentration 25 μM; read-out: DE-19bDNA EC50
Summary of the method: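 HepDE19 cells (HepG2-derived, Tet-regulated HBV) switched to Tet-free medium, then treated 7 days at 37 °C with compound, 8-point titration from 25 μM, 0.5% DMSO. rcDNA quantified by bDNA with HBV probes; EC50/EC90 via 4-parameter fit. Viability (CC50) by CellTiter-Glo ATP on 5,000 cells/well after 4 days.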

SMILES	pEC50
CN(C(=O)N1Cc2ccc(Cl)cc2C1)C1CNCc2[nH]c(=O)c3cc(F)c(F)cc3c21 (single isomer, unassigned) [Compound 226, 5-Chloro-N-(8,9-difluoro-6-oxo-1,2,3,4,5,6-hexahydrobenzo[c][1,7]naphthyridin-1-yl)-N-methylisoindoline-2-carboxamide]	4.68
CCN(C(=O)Nc1ccc(F)c(C)c1)C1COCc2[nH]c(=O)c3ccc(F)cc3c21 (stereo not shown) [Compound 76, 1-Ethyl-3-(4-fluoro-3-methylphenyl)-1-(9-fluoro-6-oxo-1,4,5,6-tetrahydro-2H-pyrano[3,4-c]isoquinolin-1-yl)urea]	8.00
CC(C)CN(C(=O)Nc1ccc(F)c(Cl)c1)C1CCc2[nH]c(=O)cc(C(F)(F)F)c21 (stereo not shown) [Compound 4, 3-(3-Chloro-4-fluorophenyl)-1-isobutyl-1-(2-oxo-4-(trifluoromethyl)-2,5,6,7-tetrahydro-1H-cyclopenta[b]pyridin-5-yl)urea]	6.04
CC(C)CN(C(=O)Nc1ccc(F)c(Cl)c1)C1CCCc2[nH]c(=O)c3ccccc3c21 (stereo not shown) [Compound 8, 3-(3-Chloro-4-fluorophenyl)-1-isobutyl-1-(6-oxo-1,2,3,4,5,6-hexahydrophenanthridin-1-yl)urea]	6.33
CN(C(=O)Nc1ccc(F)c(Cl)c1)C1COCc2[nH]c(=O)c3sccc3c21 (stereo not shown) [Compound 95, 3-(3-Chloro-4-fluorophenyl)-1-methyl-1-(6-oxo-1,4,5,6-tetrahydro-2H-pyrano[3,4-b]thieno[3,2-d]pyridin-1-yl)urea]	7.52
O=C(Nc1ccc(F)c(Cl)c1)N(CCCO)C1CCCc2[nH]c(=O)cc(C(F)(F)F)c21 (stereo not shown) [Compound 3, 3-(3-Chloro-4-fluorophenyl)-1-(3-hydroxypropyl)-1-(2-oxo-4-(trifluoromethyl)-1,2,5,6,7,8-hexahydroquinolin-5-yl)urea]	5.77
CN(C(=O)Nc1ccc(F)c(Cl)c1)C1COCc2[nH]c(=O)c3cscc3c21 (stereo not shown) [Compound 105, 3-(3-Chloro-4-fluorophenyl)-1-methyl-1-(4-oxo-4,5,8,9-tetrahydro-6H-pyrano[3,4-b]thieno[3,4-d]pyridin-9-yl)urea]	7.70
Cc1cc(NC(=O)N(C)C2COCc3[nH]c(=O)c4ccc(F)cc4c32)ccc1F (stereo not shown) [Compound 75, 3-(4-Fluoro-3-methylphenyl)-1-(9-fluoro-6-oxo-1,4,5,6-tetrahydro-2H-pyrano[3,4-c]isoquinolin-1-yl)-1-methylurea]	7.70

Same assay, conditions: inhibition of rcDNA formation in HepDE19 cells (HepG2 derived), Tet-free medium, 7 day incubation, Quantigene 2.0 bDNA readout, top concentration 25 μM; read-out: DE-19bDNA EC50

SMILES	pEC50
CN(C(=O)N1Cc2ccc(F)cc2C1)C1CNCc2[nH]c(=O)c3cc(F)c(F)cc3c21 (single isomer, unassigned) [Compound 225, N-(8,9-Difluoro-6-oxo-1,2,3,4,5,6-hexahydrobenzo[c][1,7]naphthyridin-1-yl)-5-fluoro-N-methylisoindoline-2-carboxamide]	5.47
CN(C(=O)Nc1ccc(F)c(F)c1)C1CNCc2[nH]c(=O)c3cc(F)c(F)cc3c21 (single isomer, unassigned) [Compound 192, 1-(8,9-Difluoro-6-oxo-1,2,3,4,5,6-hexahydrobenzo[c][1,7]naphthyridin-1-yl)-3-(3,4-difluorophenyl)-1-methylurea]	7.40
CN(C(=O)Nc1ccc(F)c(Cl)c1)C1COCc2[nH]c(=O)c3c(c21)COCC3 (single isomer, unassigned) [Compound 84, 3-(3-Chloro-4-fluorophenyl)-1-methyl-1-(5-oxo-4,5,6,7,9,10-hexahydro-1H,3H-dipyrano[3,4-b:3′,4′-d]pyridin-10-yl)urea]	6.08
CN(C(=O)Nc1cc(F)c(F)c(Cl)c1)C1COCc2[nH]c(=O)c3cc(F)ccc3c21 (single isomer, unassigned) [Compound 107, 3-(3-Chloro-4,5-difluorophenyl)-1-(8-fluoro-6-oxo-1,4,5,6-tetrahydro-2H-pyrano[3,4-c]isoquinolin-1-yl)-1-methylurea]	6.03
CN(C(=O)Nc1ccc(F)c(C(F)F)c1)C1COCc2nc(NCCN)c3cc(F)c(F)cc3c21 (single isomer, unassigned) [Compound 248, 1-(6-((2-Aminoethyl)amino)-8,9-difluoro-1,4-dihydro-2H-pyrano[3,4-c]isoquinolin-1-yl)-3-(3-(difluoromethyl)-4-fluorophenyl)-1-methylurea]	5.49
CN(C(=O)N1Cc2ccc(Cl)cc2C1)C1CNCc2[nH]c(=O)c3cc(F)c(F)cc3c21 (single isomer, unassigned) [Compound 227, 5-Chloro-N-(8,9-difluoro-6-oxo-1,2,3,4,5,6-hexahydrobenzo[c][1,7]naphthyridin-1-yl)-N-methylisoindoline-2-carboxamide]	4.92
CN(C(=O)Nc1ccc(F)c(Cl)c1)C1C[S+]([O-])Cc2[nH]c(=O)c3cc(F)c(F)cc3c21 (single isomer, unassigned) [Compound 208, 3-(3-Chioro-4-fluorophenyl)-1-(8,9-difluoro-3-oxido-6-oxo-1,4,5,6-tetrahydro-2H-thiopyrano[3,4-c]isoquinolin-1-yl)-1-methylurea]	5.07
CN(C(=O)Nc1ccc(F)cc1)C1COCc2[nH]c(=O)c3cc(F)c(F)cc3c21 (single isomer, unassigned) [Compound 104, 1-(8,9-Difluoro-6-oxo-1,4,5,6-tetrahydro-2H-pyrano[3,4-c]isoquinolin-1-yl)-3-(4-fluorophenyl)-1-methylurea]	7.70
CN(C(=O)Nc1ccc(F)c(Cl)c1)C1CCCc2[nH]c(=O)c3c(c21)CCCC3 (single isomer, unassigned) [Compound 46, 3-(3-Chloro-4-fluorophenyl)-1-methyl-1-(6-oxo-1,2,3,4,5,6,7,8,9,10-decahydrophenanthridin-1-yl)urea]	5.92
CNc1nc2c(c3cc(F)c(F)cc13)C(N(C)C(=O)Nc1ccc(F)c(Cl)c1)COC2 (single isomer, unassigned) [Compound 242, 3-(3-Chloro-4-fluorophenyl)-1-(8,9-difluoro-6-(methylamino)-1,4-dihydro-2H-pyrano[3,4-c]isoquinolin-1-yl)-1-methylurea]	7.70
CN(C(=O)Nc1ccc(F)c(Cl)c1)C1CNCc2[nH]c(=O)c3cc(F)ccc3c21 (single isomer, unassigned) [Compound 154, 3-(3-Chloro-4-fluorophenyl)-1-(8-fluoro-6-oxo-1,2,3,4,5,6-hexahydrobenzo[c][1,7]naphthyridin-1-yl)-1-methylurea]	7.52
CN(C(=O)Nc1ccc(F)c(F)c1)C1COCc2[nH]c(=O)c3c(c21)COCC3 (single isomer, unassigned) [Compound 85, 3-(3,4-Difluorophenyl)-1-methyl-1-(5-oxo-1,3,4,5,6,7,9,10-octahydrodipyrano[3,4-b:3′,4′-d]pyridin-10-yl)urea]	5.35
CN(C(=O)Nc1ccc(F)c(C#N)c1)C1C[S+]([O-])Cc2[nH]c(=O)c3cc(F)c(F)cc3c21 (single isomer, unassigned) [Compound 212, 3-(3-Cyano-4-fluorophenyl)-1-(8,9-difluoro-3-oxido-6-oxo-1,4,5,6-tetrahydro-2H-thiopyrano[3,4-c]isoquinolin-1-yl)-1-methylurea]	≤ 4.60
CCN(C(=O)Nc1ccc(F)c(F)c1)C1CCCc2[nH]c(=O)c3c(c21)CCCC3 (single isomer, unassigned) [Compound 51, 3-(3,4-Difluorophenyl)-1-ethyl-1-(6-oxo-1,2,3,4,5,6,7,8,9,10-decahydrophenanthridin-1-yl)urea]	7.00

Reference: US20230108906A1, “SUBSTITUTED BICYCLIC AND TRICYCLIC UREAS AND AMIDES, ANALOGUES THEREOF, AND METHODS USING SAME” (Arbutus Biopharma Corporation, priority 2019, published 2023)
